# Measurements from patent publication US7632816B2, “Treatment of Alzheimer amyloid deposition” (New York University, priority 2003, dated 2009).
# Where two headings read alike, the source gives them in different places. Square brackets hold non-standard residues; d marks the D form. Peptide text beside a SMILES is read from it.
# Columns and labels:
# apoE4 [1] = target: T1, apoE4 (Homo sapiens, UniProt P02649, C130R); experiment: Thioflavin-T aggregation inhibition: apoE4-promoted Aβ1-42 fibril formation; assay type: biochemical
# T1 construct: made in house; host or cells: primary forebrain astrocytes of GFAP-human apoE4 transgenic mice
# T1 sequence (P02649 19-317 C130R): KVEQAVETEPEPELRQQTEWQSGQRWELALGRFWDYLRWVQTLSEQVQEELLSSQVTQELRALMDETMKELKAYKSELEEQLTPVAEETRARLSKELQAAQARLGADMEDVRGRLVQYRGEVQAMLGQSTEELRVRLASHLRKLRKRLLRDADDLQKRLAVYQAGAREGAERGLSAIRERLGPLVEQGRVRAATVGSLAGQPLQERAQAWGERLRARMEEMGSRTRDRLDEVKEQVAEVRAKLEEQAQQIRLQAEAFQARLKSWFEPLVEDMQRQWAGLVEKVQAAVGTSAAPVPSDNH
# Procedure: Recombinant apoE3 and apoE4 were purchased from Calbiochem Corp. (San Diego, Calif.). Lipidated apoE3 and apoE4 complexes were prepared from primary cultures of astrocytes derived from Tg mice in which human apoE3 or apoE4 were expressed under the control of the astrocyte-specific glial fibrillary acidic protein (GFAP) promoter as described previously (Fagan et al., “Unique Lipoproteins Secreted by Primary Astrocytes from Wild Type, ApoE (−/−), and Human ApoE Transgenic Mice,” J. Biol. Chem. 274:30001-30007 (1999); DeMattos et al., “Purification and Characterization of Astrocyte-secreted Apolipoprotein E and J-Containing Lipoproteins from Wild-type and Human ApoE Transgenic Mice,” Neurochemistry International 39:415-425 (2001); Sun et al., “Glial Fibrillary Acidic Protein-apolipoprotein E (apoE) Transgenic Mice: Astrocyte-specific Expression and Differing Biological Effects of Astrocyte-secreted ApoE3 and ApoE4 Lipoproteins,” J. Neurosci. 18:3261-3272 (1998); which are hereby incorporated by reference in their entirety). […] The purity of the apoE preparation was assessed by SDS-PAGE.
# Aβ1-40 and Aβ1-42 were studied for comparison. […] Samples containing 15 μg of incubated peptides were taken at indicated intervals and fluorescence was measured as previously described in a Perkin-Elmer LS-50B fluorescence spectrophotometer (Perkin Elmer Instruments, Shelton, Conn.) (Wisniewski et al., “Acceleration of Alzheimer's Fibril Formation by Apolipoprotein E in vitro,” Am. J. Pathol. 145:1030-1035 (1994); Golabek et al., “The Interaction Between Apolipoprotein E and Alzheimer's Amyloid β-peptide is Dependent on β-peptide Conformation,” J. Biol. Chem. 271:10602-10606 (1996); which are hereby incorporated by reference in their entirety). […] Differences in amount of fibrils formed by the different peptides were evaluated by means of a repeated measures ANOVA, followed by a Tukey HSD post-hoc test using Statistica (version 6.1) (StatSoft Inc., Tulsa, Okla.). […]
# apoE4 [2] = target: T1, apoE4; experiment: Competitive inhibition ELISA: apoE4 binding to immobilized Aβ1-40
# Procedure: Lipidated apoE4 100 nM was preincubated with an increasing concentration of Aβ12-28P (0-400 nM) in 10 mM Tris buffer pH 7.4 for three hours at 37° C., and then added to the plate (100 μL/well). […] The color reaction was developed with a 3,3,5,5-tetramethybenzidine substrate (Sigma, St. Louis, Mo.), stopped with 2M sulfuric acid, and optical density (“OD”) was read at 450 nm on a 7520 Microplate Reader (Cambridge Technology, Watertown, Mass.). Non-specific binding was determined using bovine serum albumin and/or omitting the apoE4 in the assay. OD values were converted to percentages with the binding of apoE4 in the absence of inhibitor being considered as 100%. The mean±standard deviation from three independent duplicate experiments was plotted in FIG. 3 and analyzed by a one site competition nonlinear regression fit algorithm using GraphPad Prism v4.0 (GraphPad Software, San Diego, Calif.).
# [3] = assay type: physicochemical
# Description: Circular dichroism (“CD”) was used to study the secondary structure of peptides in solution as described previously (Golabek et al., “The Interaction Between Apolipoprotein E and Alzheimer's Amyloid β-peptide is Dependent on β-peptide Conformation,” J. Biol. Chem. 271:10602-10606 (1996); Soto et al., “Alzheimer's Soluble β-amyloid is Conformationally Modified by Apolipoproteins in vitro,” Neuroreport 7:721-725 (1996); which are hereby incorporated by reference in their entirety). Aliquots of HFIP treated peptides were diluted in 5 mmol/L Tris buffer (pH 7.0) to obtain a peptide concentration of 100 μmol/L, and were incubated at 37° C. CD was measured at indicated intervals with t=0 being immediately after the peptide was reconstituted. Measurements were on a Jasco J-720 spectropolarimeter (Easton, Md.), equipped with a model CTC-344 circular temperature control system (Neslab Inc., Newington, N.H.), at final protein concentration of 0.15 mg/ml in a cell with 0.1 cm path length. The spectra were recorded at 1 nm intervals over the wavelength range of 190-260 nm at 15° C. Results were expressed as molar ellipticity in units of deg-cm^2-dmol^−1, and the data were analyzed by the Lincomb, convex constraints and neural network algorithms to obtain percentages of different types of secondary structures using Softsec software (Softwood Inc., PA.) (Perczel et al., “Analysis of Circular Dichroism Spectrum of Proteins Using the Convex Constraint Algorithm,” Anal. Biochem. 203:83-93 (1992); Manavalan et al., “Variable Selection Method Improves the Prediction of Protein Secondary Structure from Circular Dichroism,” Anal. Biochem. 167:76-85 (1987); Toumadje et al., “Extending CD Spectra of Proteins to 168nm Improves the Analysis for Secondary Structures,” Anal. Biochem. 200:321-331 (1992); Sreerma et al., “A Self-consistent Method for the Analysis of Protein Secondary Structure from Circular Dichroism,” Anal. Biochem. 209:32-44 (1993); which are hereby incorporated by reference in their entirety). […]
# [4] = CD immediately after reconstitution, 5 mmol/L Tris pH 7.0
structure (smiles),measurement,setting,value
CC(=O)N[C@@H](C(=O)N[C@H](Cc1c[nH]cn1)C(=O)N[C@H](Cc1c[nH]cn1)C(=O)N[C@H](CCC(N)=O)C(=O)N[C@H](CCCCN)C(=O)N[C@H](CC(C)C)C(=O)N1CCC[C@@H]1C(=O)N[C@H](Cc1ccccc1)C(=O)N[C@H](Cc1ccccc1)C(=O)N[C@H](C)C(=O)N[C@H](CCC(=O)O)C(=O)N[C@H](CC(=O)O)C(=O)N[C@@H](C(=O)NCC(=O)N[C@H](CO)C(=O)N[C@H](CC(N)=O)C(=O)N[C@H](CCCCN)C(N)=O)C(C)C)C(C)C [Aβ12-28P] (Ac-[dV][dH][dH][dQ][dK][dL][dP][dF][dF][dA][dE][dD][dV]G[dS][dN][dK]-NH2),relative reduction in fluorescence,apoE4 [1],25.3%
same,relative reduction in fluorescence,"apoE4 [1]; apoE4 preincubated with Aβ12-28P, then added to Aβ1-42, day six",52.3%
same,chaperoning effect of apoE4 on Aβ1-42 fibril formation,"apoE4 [1]; apoE4 preincubated with equimolar Aβ12-28P, p<0.01",significantly reduced
same,IC50,"apoE4 [2]; 100 nM lipidated apoE4 preincubated with 0-400 nM peptide, one-site competition fit",36.7 nM
same,Ki,apoE4 [2]; read-out: inhibition constant (KI),11.4 nM
same,β-sheet content,[3]; CD at time=0,2%
same,"random coil, share of the total protein structure",[3]; [4],59%
same,"∝-helix, share of the total protein structure",[3]; [4],39%
